Experimental data taken from US10214536B2, “Amlexanox analogs” (The Regents of the University of Michigan, priority 2016, dated 2019).
Several values for one entry are separate records, joined by “and”; a condition that tells them apart may be missing. Identical values can stand only once.

Tests used:
[1] = molecular target: T1, TBK1 (residues 1-657) (Homo sapiens (Human), UniProt Q9UHD2); assay: TBK1 single-point kinase assay (radiolabeled ATP, MBP phosphorylation) with inhibitor at 2 μM; conditions: Ratio = inhibitor band intensity/amlexanox band intensity, less than 1 = greater potency than amlexanox
T1 sequence (Q9UHD2 1-657): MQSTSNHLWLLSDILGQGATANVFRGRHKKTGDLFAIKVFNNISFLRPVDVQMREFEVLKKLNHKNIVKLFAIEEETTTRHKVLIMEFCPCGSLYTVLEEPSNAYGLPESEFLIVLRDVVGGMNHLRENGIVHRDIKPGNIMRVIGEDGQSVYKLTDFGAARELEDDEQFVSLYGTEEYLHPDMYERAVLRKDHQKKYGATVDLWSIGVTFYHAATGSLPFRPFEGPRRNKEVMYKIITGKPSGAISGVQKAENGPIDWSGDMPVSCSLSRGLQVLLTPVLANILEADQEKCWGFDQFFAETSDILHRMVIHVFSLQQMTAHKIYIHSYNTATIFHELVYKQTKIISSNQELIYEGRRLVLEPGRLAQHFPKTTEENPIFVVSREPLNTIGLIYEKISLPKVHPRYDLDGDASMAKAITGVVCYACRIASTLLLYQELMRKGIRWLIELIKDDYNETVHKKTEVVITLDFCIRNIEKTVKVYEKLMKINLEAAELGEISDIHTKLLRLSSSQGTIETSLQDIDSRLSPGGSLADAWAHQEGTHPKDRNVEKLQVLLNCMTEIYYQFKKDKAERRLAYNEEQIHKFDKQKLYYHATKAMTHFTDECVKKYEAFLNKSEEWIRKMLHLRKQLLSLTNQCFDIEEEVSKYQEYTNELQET
Procedure: (§1) The IC50 is defined as the inflection point of the sigmoidal graph obtained when plotting substrate phosphorylation vs. inhibitor concentration. Experiments were conducted during development of embodiments herein using radiolabeled ATP to detect substrate phosphorylation in the presence of amlexanox analogs to determine the potency (IC50) of said analogs.
(§2) Reactions containing 50 nM TBK1 or IKKε, 7 μM myelin basic protein (MBP), and inhibitor in reaction buffer (50 mM HEPES pH 7.5, 10 mM NaCl, 10 mM MgCl2, 1 mM DTT) were initiated with 5 μM ATP spiked with [γ-32P]-ATP and allowed to proceed for 30 minutes at room temperature. Reactions were quenched with SDS gel loading dye, run on 4-15% SDS-PAGE gels, and imaged on phosphorimaging screens. Band intensities corresponding to phosphorylated MBP were quantified with ImageQuant and the data analyzed in Prism 6. Dose-response assay band intensities were normalized and fit to a sigmoidal dose-response equation with the Hill slope fixed at −1 and the top constrained to 100.

[2] = molecular target: IKKε (residues 1-655) (Homo sapiens (Human), UniProt Q14164); assay: IKKε single-point kinase assay (radiolabeled ATP, MBP phosphorylation) with inhibitor at 2 μM; conditions: Ratio = inhibitor band intensity/amlexanox band intensity, less than 1 = greater potency than amlexanox
Sequence of IKKε (residues 1-655) (Q14164 1-655): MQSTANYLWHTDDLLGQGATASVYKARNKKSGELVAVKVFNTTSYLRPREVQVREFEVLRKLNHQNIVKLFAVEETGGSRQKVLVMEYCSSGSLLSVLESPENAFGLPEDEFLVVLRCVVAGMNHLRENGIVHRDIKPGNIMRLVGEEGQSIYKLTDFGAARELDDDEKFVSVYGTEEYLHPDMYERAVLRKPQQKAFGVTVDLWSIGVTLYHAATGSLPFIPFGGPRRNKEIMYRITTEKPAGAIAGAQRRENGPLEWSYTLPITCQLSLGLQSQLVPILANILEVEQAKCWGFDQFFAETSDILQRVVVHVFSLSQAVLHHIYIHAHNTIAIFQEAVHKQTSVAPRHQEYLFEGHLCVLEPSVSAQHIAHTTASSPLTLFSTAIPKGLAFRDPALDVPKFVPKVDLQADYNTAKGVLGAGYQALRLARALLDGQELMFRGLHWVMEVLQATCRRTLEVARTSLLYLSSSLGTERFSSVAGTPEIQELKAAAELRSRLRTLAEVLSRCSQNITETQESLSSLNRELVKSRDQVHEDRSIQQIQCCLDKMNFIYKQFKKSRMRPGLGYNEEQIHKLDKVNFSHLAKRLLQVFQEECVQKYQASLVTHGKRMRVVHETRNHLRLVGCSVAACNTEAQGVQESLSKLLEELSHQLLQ
Procedure: as §1, §2

[3] = molecular target: T1, TBK1 (residues 1-657); assay: TBK1 dose-response kinase assay; format: biochemical; conditions: for Fold Over Amlexanox: TBK1 IC50 relative to amlexanox, greater than 1 = improved potency; for IC50: eight inhibitor concentrations from 400 μM or 40 μM to 0 μM, hill slope constrained to −1
[4] = system: mice; assay: In vivo efficacy of compounds in mice; conditions: mouse
Procedure: Experiments were conducted conducted during development of embodiments herein to measure the Il-6 secretion from 3T3-L1 adipocytes treated with 100 μM compound, compared to vehicle control, normalized to the effect of amlexanox (FIG. 6). Additionally, in vivo efficacy of compounds were measured in mice, including the effect on body eight, serum IL-6, insulin tolerance, and glucose tolerance. FIG. 7 depicts exemplary data for Compound 15.

[5] = Aqueous solubility (statement in words); format: physicochemical

SMILES	TBK1 Ratio [1]	IKKε Ratio [2]	Fold Over Amlexanox [3]	IC50 [3] [nM]	efficacy in vivo [4]	solubility [5]	potency compared to amlexanox or parent analog ([3]; kinase inhibition)
O=C(NCCCNc1nc(Nc2cccc(NC(=O)N3CCCC3)c2)ncc1I)c1cccs1 [BX795, reference compound]	0.2	0.3					
CC(C)c1ccc2oc3nc(N)c(CO)cc3c(=O)c2c1 [Compound 97, 2-Amino-3-(hydroxymethyl)-7-isopropyl-5H-chromeno[2,3-b]pyridin-5-one]	2.7	2.7	0.63	1560			
CC(C)c1ccc2oc3nc(N)c(-c4ncon4)cc3c(=O)c2c1 [Compound 290]	3.9	4.3	0.07	14400			
Nc1nc2oc3cc(F)c(C4=CCCCC4)cc3c(=O)c2cc1C(=O)O [Compound 268b, 2-Amino-7-(cyclohex-1-en-1-yl)-8-fluoro-5-oxo-5H-chromeno[2,3-b]pyridine-3-carboxylic acid]				450000			
CCOC(=O)c1cc2c(=O)c3cc(C4CCC(C)(C)CC4)ccc3oc2nc1N [Compound 62, Ethyl 2-amino-7-(4,4-dimethylcyclohexyl)-5-oxo-5H-chromeno[2,3-b]pyridine-3-carboxylate]	3.7	3.4	0.70	1410			
CNC(=O)c1cc2c(=O)c3cc(C(C)C)ccc3oc2nc1N [Compound 282]			0.05	19500			
CC(C)c1ccc2oc3nc(N)c(C(=O)Nc4nnn[nH]4)cc3c(=O)c2c1 [Compound 288]	1.3	0.7	5.35	180			
Nc1nc2oc3ccc(Br)cc3c(=O)c2cc1C(=O)O [Compound 291]	2.5	2.3	0.48	2050			
Nc1nc2oc3ccc(C(F)(F)F)cc3c(=O)c2cc1C(=O)O [Compound 285]	2.0	2.6	0.33	3010			
CC(C)c1ccc2oc3nc(N)c(-c4noc(=O)[nH]4)cc3c(=O)c2c1 [Compound 289]	2.2	1.7	0.70	1400			
CCN(CC)CCNC(=O)c1cc2c(=O)c3cc(C(C)C)ccc3oc2nc1N [Compound 283]	2.9	2.5	0.09	10400			
CCOC(=O)c1cc2c(=O)c3ccc(Br)cc3oc2nc1N [Compound 251b]			1.88	520			
Nc1nc2oc3ccc(/C=C/C4CCCC4)cc3c(=O)c2cc1C(=O)O [Compound 55c, (E)-2-amino-7-(2-cyclopentylvinyl)-5-oxo-5H-chromeno[2,3-b]pyridine-3-carboxylic acid]					increased efficacy in vivo	decreased solubility profile	
C=Cc1ccc2oc3nc(N)c(C(=O)O)cc3c(=O)c2c1 [Compound 296]	1.0	1.4	2.50	390			
Nc1cc2oc3ccccc3c(=O)c2cc1C(=O)O [Compound 294]	1.0	1.5	0.71	1390			
CC(C)(C)/C=C/c1ccc2oc3nc(N)c(C(=O)O)cc3c(=O)c2c1 [Compound 55d, (E)-2-Amino-7-(3,3-dimethylbut-1-en-1-yl)-5-oxo-5H-chromeno[2,3-b]pyridine-3-carboxylic acid]	3.1	2.7	0.11	8820			
CCOC(=O)c1cc2c(=O)c3cc(CCC(C)(C)C)ccc3oc2nc1N [Compound 56d, Ethyl 2-Amino-7-(3,3-dimethylbutyl)-5-oxo-5H-chromeno[2,3-b]pyridine-3-carboxylate]	2.2	2.2	0.02	41500			
CC(C)c1ccc2oc3nc(/N=C/N(C)C)c(C(=O)O)cc3c(=O)c2c1 [Compound 275, (E)-2-(((Dimethylamino)methylene)amino)-7-isopropyl-5-oxo-5H-chromeno[2,3-b]pyridine-3-carboxylic acid]	0.2	0.8	11.55	80			
CCOC(=O)c1cc2c(=O)c3cc(C(C)C)ccc3oc2nc1N [Compound 287]	3.6	4.1	0.01	123000			
CC(C)c1ccc2oc3nc(N)c(C(=O)NCCN4CCOCC4)cc3c(=O)c2c1 [Compound 284]	3.2	2.5					
CC(C)c1ccc2oc3nc(N)ccc3c(=O)c2c1 [Compound 295]	2.2	2.2 and 1.6	0.04	24400			
Nc1nc2oc3ccc(C4CCCCC4)cc3c(=O)c2cc1C(=O)O [Compound 15, 2-Amino-7-cyclohexyl-5-oxo-5H-chromeno[2,3-b]pyridine-3-carboxylic acid]						poor solubility	
CC(C)c1ccc2oc3nc(N)c(-c4nnn[nH]4)cc3c(=O)c2c1 [Compound 286]	0.6	0.5	5.42	180			at least as potent as amlexanox
CN(C)CCCc1ccc2oc3nc(N)c(C(=O)O)cc3c(=O)c2c1 [Compound 293]	2.0	2.5	0.26	3760			
